In ChEMBL document CHEMBL4610101, “Antimalarial Eudesmane Sesquiterpenoids from Dobinea delavayi” (2020):
Activity calls are given as the source filed them. The calls are words filed in the database; no cut-off is given here.

Key:
Plasmodium yoelii [1] = test: (§1) Antimalarial activity against Plasmodium yoelii BY265RFP infected in Kunming mouse assessed as inhibition of parasitemia at 30 mg/kg/day, ig administered for 4 days starting from 3 hrs post infection and measured at 4 days post infection by Wright-Giemsa staining based microscopic assay relative to control; format: functional; conditions: po
Mus musculus [2] = test: (§2) Immunomodulatory activity in Kunming mouse infected with Plasmodium yoelii BY265RFP assessed as decrease in IgG at 30 mg/kg/day, ig administered for 4 days starting from 3 hrs post infection and measured at 4 days post infection by FACSCalibur flow cytometry; format: functional, organism-based
Mus musculus [3] = test: as §2, with “proportion of splenic CD4+CD25+ Tregs within CD4+ cells” for “decrease in IgG”, “15” for “30”, “cytometry (reference value: 11.2 +/- 0.5%)” for “cytometry”; format: functional
Plasmodium yoelii [4] = test: Induction of intracellular ROS production in Plasmodium yoelii BY265RFP infected in mouse erythrocytes at 0.03 to 3 uM after 12 hrs by DCFH-DA staining based laser-scanning confocal microscopic analysis; format: functional, organism-based
Mus musculus [5] = test: Immunomodulatory activity in Kunming mouse infected with Plasmodium yoelii BY265RFP assessed as increase in IFN-gamma at 30 mg/kg/day, ig administered for 4 days starting from 3 hrs post infection and measured at 4 days post infection by FACSCalibur flow cytometry; format: functional, organism-based
Mus musculus [6] = test: as §2, with “proportion of splenic CD4+CD25+ Tregs within CD4+ cells” for “decrease in IgG”, “10” for “30”, “cytometry (reference value: 11.2 +/- 0.5%)” for “cytometry”; format: functional
Plasmodium yoelii [7] = test: Disruption of mitochondrial membrane potential in Plasmodium yoelii BY265RFP infected in mouse erythrocytes assessed as red/green fluorescence ratio at 0.3 uM incubated for 12 hrs by JC1 staining based laser-scanning confocal microscopic analysis (reference value: 1.55 +/- 0.08); format: functional
Mus musculus [8] = test: Immunomodulatory activity in Kunming mouse infected with Plasmodium yoelii BY265RFP assessed as increase in IL-12 at 30 mg/kg/day, ig administered for 4 days starting from 3 hrs post infection and measured at 4 days post infection by FACSCalibur flow cytometry; format: functional, organism-based
Plasmodium yoelii [9] = test: Antimicrobial activity against Plasmodium yoelii BY265RFP infected in Kunming mouse assessed as relief from hepatomegaly at 15 to 30 mg/kg/day, ig administered for 4 days starting from 3 hrs post infection and measured at 4 days post infection; format: functional, organism-based
Plasmodium yoelii [10] = test: as §1, with “15” for “30”; format: functional; conditions: po
Plasmodium yoelii [11] = test: Antimicrobial activity against Plasmodium yoelii BY265RFP infected in Kunming mouse assessed as recovery of erythrocyte at 15 to 30 mg/kg/day, ig administered for 4 days starting from 3 hrs post infection and measured at 4 days post infection; format: functional, organism-based
Hemozoin = test: Inhibition of beta-hematin formation incubated for 5 hrs
Mus musculus [12] = test: Immunomodulatory activity in Kunming mouse infected with Plasmodium yoelii BY265RFP assessed as decrease in IL-10 at 30 mg/kg/day, ig administered for 4 days starting from 3 hrs post infection and measured at 4 days post infection by FACSCalibur flow cytometry; format: functional, organism-based
Plasmodium yoelii [13] = test: Antimicrobial activity against Plasmodium yoelii BY265RFP infected in Kunming mouse assessed as increase in hemoglobin level at 15 to 30 mg/kg/day, ig administered for 4 days starting from 3 hrs post infection and measured at 5 days post infection; format: functional, organism-based
Plasmodium yoelii [14] = test: Disruption of mitochondrial membrane potential in Plasmodium yoelii BY265RFP infected in mouse erythrocytes assessed as red/green fluorescence ratio at 3 uM incubated for 12 hrs by JC1 staining based laser-scanning confocal microscopic analysis (reference value: 1.55 +/- 0.08); format: functional
Mus musculus [15] = test: as §2, with “proportion of splenic CD4+CD25+ Tregs within CD4+ cells” for “decrease in IgG”, “cytometry (reference value: 11.2 +/- 0.5%)” for “cytometry”; format: functional
Plasmodium yoelii [16] = test: Disruption of mitochondrial membrane potential in Plasmodium yoelii BY265RFP infected in mouse erythrocytes assessed as red/green fluorescence ratio at 0.03 uM incubated for 12 hrs by JC1 staining based laser-scanning confocal microscopic analysis (reference value: 1.55 +/- 0.08); format: functional
Plasmodium yoelii [17] = test: Antimicrobial activity against Plasmodium yoelii BY265RFP infected in Kunming mouse assessed as recovery of abdominal temperature at 15 to 30 mg/kg/day, ig administered for 4 days starting from 3 hrs post infection and measured at 5 days post infection; format: functional, organism-based
Plasmodium yoelii [18] = test: as §1, with “10” for “30”; format: functional; conditions: po
Plasmodium yoelii [19] = test: as §1, with “50” for “30”; format: functional; conditions: po

C/C=C(/C)C(=O)O[C@H]1CC[C@]2(C)CC(=O)C[C@H]2[C@]1(C)OC(C)=O
inhibition in vivo at 30 mg/kg/day (Plasmodium yoelii [1]): 18.5%

C/C=C(/C)C(=O)O[C@H]1CC[C@]2(C)C[C@@H](C(C)=O)C[C@H]2[C@]1(C)OC(C)=O
Activity (Mus musculus [2]): Active | Activity (Mus musculus [3]): 8.6% | Activity (Plasmodium yoelii [4]): Active | Activity (Mus musculus [5]): Active | Activity (Mus musculus [6]): 6.7% | Ratio (Plasmodium yoelii [7]): 1.35 | Activity (Mus musculus [8]): Active | Activity (Plasmodium yoelii [9]): Active | inhibition in vivo at 15 mg/kg/day (Plasmodium yoelii [10]): 33.8% | inhibition in vivo at 30 mg/kg/day (Plasmodium yoelii [1]): 59.1% | Activity (Plasmodium yoelii [11]): Active | inhibition (Hemozoin): inactive | Activity (Mus musculus [12]): Active | Activity (Plasmodium yoelii [13]): Active | Ratio (Plasmodium yoelii [14]): 1.22 | Activity (Mus musculus [15]): 7.6% | Ratio (Plasmodium yoelii [16]): 1.51 | Activity (Plasmodium yoelii [17]): Active

C/C=C(/C)C(=O)O[C@H]1CC[C@]2(C)C[C@]3(O)OC(=O)C(C)=C3C[C@H]2[C@]1(C)OC(C)=O
inhibition in vivo at 30 mg/kg/day (Plasmodium yoelii [1]): 14.5%

C/C=C(/C)C(=O)O[C@H]1CC[C@]2(C)C[C@@H]3OC(=O)C(C)=C3C[C@H]2[C@]1(C)OC(C)=O
inhibition in vivo at 30 mg/kg/day (Plasmodium yoelii [1]): 15%

CCN(CC)CCCC(C)Nc1ccnc2cc(Cl)ccc12 (stereo not drawn) [CHLOROQUINE PHOSPHATE]
inhibition in vivo at 10 mg/kg/day (Plasmodium yoelii [18]): 97.9%

C[C@@H]1CC[C@H]2[C@@H](C)C(=O)O[C@@H]3O[C@@]4(C)CC[C@@H]1[C@]32OO4 [ARTEMISININ]
Ratio (Plasmodium yoelii [7]): 1.33 | Ratio (Plasmodium yoelii [14]): 1.18 | inhibition in vivo at 50 mg/kg/day (Plasmodium yoelii [19]): 54.4% | Ratio (Plasmodium yoelii [16]): 1.43

C/C=C(/C)C(=O)O[C@H]1CC[C@]2(C)CC(=O)[C@@H](C(C)C(=O)O)C[C@H]2[C@]1(C)O (stereo partly drawn)
inhibition in vivo at 30 mg/kg/day (Plasmodium yoelii [1]): 3.9%

C/C=C(/C)C(=O)O[C@H]1CC[C@]2(C)C[C@]3(O)OC(=O)C(C)=C3C[C@H]2[C@]1(C)O
inhibition in vivo at 30 mg/kg/day (Plasmodium yoelii [1]): -1.9%
